From ChEMBL document CHEMBL1152932, “Inhibitory effects of phloroglucinol derivatives isolated from Ecklonia stolonifera on Fc(epsilon)RI expression” (Bioorg Med Chem, 2009)

How the values were obtained:
[1] = tested on: KU-812F; test: Inhibition of Fc-epsilonR1 protein expression in anti-human Fc-epsilonR1 antibody-stimulated human KU-812F cells after 24 hrs by Western blotting; format: functional, cell-based
[2] = tested on: KU-812F; test: Inhibition of Fc-epsilonR1 alpha mRNA expression in anti-human Fc-epsilonR1 antibody-stimulated human KU-812F cells after 24 hrs by RT-PCR; format: functional, cell-based
[3] = biological target: T1, High affinity immunoglobulin epsilon receptor subunit alpha (Homo sapiens) (UniProt P12319); test: Inhibition of Fc-epsilonR1-mediated [Ca2+]i elevation in anti-human Fc-epsilonR1 antibody-stimulated human KU-812F cells; format: cell-based
T1 sequence (whole entry): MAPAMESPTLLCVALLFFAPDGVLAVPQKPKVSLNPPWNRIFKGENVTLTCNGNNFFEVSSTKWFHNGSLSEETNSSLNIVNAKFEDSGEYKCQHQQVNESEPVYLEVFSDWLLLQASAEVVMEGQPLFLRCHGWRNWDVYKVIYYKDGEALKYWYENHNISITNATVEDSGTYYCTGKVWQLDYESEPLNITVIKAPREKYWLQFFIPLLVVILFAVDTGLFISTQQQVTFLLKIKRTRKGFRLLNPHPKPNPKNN

[4] = biological target: T1, High affinity immunoglobulin epsilon receptor subunit alpha (Homo sapiens); test: Inhibition of Fc-epsilonR1-mediated histamine release in anti-human Fc-epsilonR1 antibody-stimulated human KU-812F cells by spectrofluorimetry; format: cell-based
[5] = Inhibition of Fc-epsilonR1 expression in anti-human Fc-epsilonR1 antibody-stimulated human KU-812F cells at 50 uM after 24 hrs by flow cytometry; format: functional
[6] = Inhibition of Fc-epsilonR1 expression in anti-human Fc-epsilonR1 antibody-stimulated human KU-812F cells at 5 uM after 24 hrs by flow cytometry; format: functional
[7] = Inhibition of Fc-epsilonR1 expression in anti-human Fc-epsilonR1 antibody-stimulated human KU-812F cells at 10 uM after 24 hrs by flow cytometry; format: functional
[8] = Inhibition of Fc-epsilonR1 expression in anti-human Fc-epsilonR1 antibody-stimulated human KU-812F cells at 25 uM after 24 hrs by flow cytometry; format: functional

| SMILES | Activity [1] | Activity [2] | Activity [3] | Activity [4] | inhibition at 50 µM [5] [%] | inhibition at 5 µM [6] [%] | inhibition at 10 µM [7] [%] | inhibition at 25 µM [8] [%] |
| --- | --- | --- | --- | --- | --- | --- | --- | --- |
| Oc1cc(O)cc(Oc2c(O)cc(O)c3c2Oc2c(O)cc4oc5c(Oc6cc(O)cc(O)c6)c(O)cc(O)c5c4c2O3)c1 | Dose-dependent effect | Dose-dependent effect | Dose-dependent effect | Dose-dependent effect | – | – | – | – |
| Oc1cc(O)c2oc3cc(O)c4oc5cc(O)cc(O)c5oc4c3oc2c1 [DIOXINODEHYDROECKOL] | Dose-dependent effect | Dose-dependent effect | Dose-dependent effect | Dose-dependent effect | 16.9 | 25.2 | 23.1 | 19.5 |
